Data taken from patent US12497359B2, “Acrylamide derivatives” (NRG Therapeutics Ltd, priority 2020, dated 2025).
≈ marks a conversion by molar mass, not a printed value.

What was measured:
[1] = FaSSIF solubility; type: physicochemical; details: kinetic from dmso stock, Fasted state simulated intestinal fluid, 2 hr at 25° C.
Protocol: (§1) Test compounds were prepared as 10 mM stocks in DMSO and 15 μl samples transferred in duplicate into 1.5 mL glass flat bottom vials (BioTech Solutions). Fasted state simulated intestinal fluid (FaSSIF) or PBS (pH 7.4) was added to each vial to final volume of 500 μl. One PTFE encapsulated stir stick (V&P Scientific) was placed in each vial before sealing with PTFE/SIL plugs (BioTech Solutions). Vials were shaken at 1100 rpm for 2 hr at 25° C. Samples were then filtered through MultiScreen Solvinert filter plates (Millipore) via vacuum filtration. Aliquots of filtrate (5 μl) plus 5 μl DMSO were diluted in 490 μl 50% acetonitrile in water containing internal standard. The filtrate was analysed and quantified against a standard of known concentration using LC-MS/MS. Solubility values of the test compound and control compound were calculated as follows: [Sample]=(Area ratiosample*INJ VOL STD*DFsample*[STD])/(Area ratio STD*INJ VOLsample).

[2] = test system: mPTP; experiment: mPTP activity assay in isolated rat liver mitochondria (Ca2+ retention, Fluo5N, FLIPR); type: biochemical; details: isolated rat liver mitochondria; average value from multiple experiments (n ≥ 2)
Source text: Pharmacological inhibition or modulation of the mPTP can be measured in well characterised ‘Ca^2+ retention’ assays performed in isolated mitochondria. In vitro, isolated mitochondria rapidly sequester exogenous Ca^2+ until the intramitochondrial Ca^2+ concentration reaches the threshold for mPTP activation. Once the pore is activated, mitochondrial integrity is compromised and the stored Ca^2+ is released. The distribution of Ca^2+ between extra- and intra-mitochondrial compartments can be measured in real time with the use of membrane-impermeant Ca^2+ sensitive fluorescent dyes. Depending on the configuration of the assay, inhibition or modulation of the mPTP either delays the opening of the pore or increases the concentration of Ca^2+ required to induce mPTP opening.
mPTP activity was measured in mitochondria freshly isolated from female Sprague Dawley (250 to 300 gram) rat livers using the following method. Cervical dislocation was performed on the rat. The liver was then perfused in-situ with ˜40 ml cold Dulbecco's Phosphate Buffered Saline (DPBS) prior to dissection and transferred into 30 ml Isolation Buffer (250 mM Sucrose, 10 mM KCl, 1 mM EGTA, 1 mM EDTA, 25 mM HEPES, adjusted to pH 7.5 with 1 M NaOH). Each lobe of the liver was then removed from the buffer, minced using tweezers and a scalpel into ˜5 mm pieces then transferred into a 50 ml Potterton dounce homogenization tube on ice containing 30 ml ice-cold centrifugation buffer (300 mM Trehalose, 25 mM HEPES, 1 mM EGTA, 1 mM EDTA, 10 mM KCl, adjusted to pH 7.5 with 1 M NaOH and supplemented with 0.1% bovine serum albumin (BSA) and complete protease inhibitor cocktail (one tablet of inhibitor per 50 mls of buffer). Homogenisation was carried out using a teflon pestle at 1800 rpm. The slurry was centrifuged at 800 g for 10 min at 4° C., then the supernatant centrifuged at 10,000 g for 10 min. The pellet was washed once with FLIPR assay buffer (75 mM Mannitol, 25 mM Sucrose, 5 mM Potassium Phosphate Monobasic, 20 mM Tris base, 100 mM KCl, 0.1% BSA adjusted to pH 7.4 with 5 M HCl) centrifuged again, then resuspended in FLIPR assay buffer to a concentration of 8.8 mg/ml protein.
Test compounds (10 mM stock in DMSO) were serially diluted in DMSO in half log steps to generate 10 test concentrations (final concentrations in assay 30 μM to 1 nM). An intermediate dilution of 5 μl DMSO samples into 247 μl FLIPR assay buffer was carried out prior to transfer of 5 μl into duplicate wells of a 384 well polypropylene assay plate. Control wells were 0.5% (v/v) DMSO and 5 μM cyclosporin A.
A stock mitochondria/Fluo5N assay solution was prepared in 5.6 ml FLIPR assay buffer (at RT) supplemented with succinate disodium salt (10 mM), rotenone (1 μM), Fluo5N pentapotassium salt (2 μM) and 1 ml mitochondria suspension, then transferred (15 μl) into the assay plate containing test compounds and incubated for 10 min at RT. Assay plates were then transferred to a FLIPR Tetra plate reader (Molecular Devices). Dye fluorescence was then measured every 3 sec for a total of 10 min. After 12 sec, a 2.5 μl bolus of CaCl2 (75 μM) was added from a source plate containing 675 μM CaCl2 in FLIPR assay buffer. IC50 values for test compounds were calculated using the fluorescence value collected at the 10 min timepoint with % inhibition calculated using the DMSO control and cyclosporin A values as […] respectively.

[3] = test system: mPTP; experiment: mPTP activity assay in isolated rat brain mitochondria; type: biochemical; details: isolated rat brain mitochondria
Protocol: MPTP activity was measured in brain mitochondria freshly isolated from female Sprague Dawley (250 to 300 gram) rats. Anaesthetised rats were perfused in-situ with ˜40 ml cold Dulbecco's Phosphate Buffered Saline (DPBS), then brains dissected and transferred into 30 ml Isolation Buffer (225 mM mannitol, 75 mM sucrose, 1 mM EGTA, adjusted to pH 7.4 with 1 M NaOH). The brain was minced using tweezers and a scalpel into ˜5 mm pieces then transferred into a 50 ml Potterton Dounce homogenization tube on ice containing 10 ml ice-cold isolation buffer (as above with addition of Complete Protease inhibitor; 1 tablet per 50 ml buffer). Homogenisation was carried out using a teflon pestle at 1800 rpm. The slurry was centrifuged at 2000 g for 10 min at 4° C., then the supernatant centrifuged at 12,000 g for 9 min. The pellet was resuspended with a dounce homogeniser in isolation buffer as above but with the addition of 0.02% digitonin, centrifuged at 12,000 g for 11 min and finally resuspended in 5 ml modified isolation buffer (as above but with EGTA reduced to 0.1 mM).
Test compounds were prepared in 384 well polypropylene assay plates as described above for the liver mitochondria assay. A stock mitochondria/Fluo5N assay solution was prepared in 5.6 ml assay buffer (120 mM mannitol, 40 mM MOPS, 5 mM KH2PO4, 60 mM KCl, 10 mM pyruvate, 2 mM malate, 2 mM MgCl2, 20 μM ADP, 1.26 μM oligomycin A, adjusted to pH 7.4) supplemented with Fluo5N pentapotassium salt (2 μM) and 1 ml mitochondria suspension, then transferred (15 μl) into the assay plate containing test compounds and incubated for 10 min at RT. Assay plates were then transferred to a FLIPR Tetra plate reader (Molecular Devices). Dye fluorescence was then measured every 3 sec for a total of 10 min. After 12 sec, a 2.5 μl bolus of Ca2+(75 μM) was added from a source plate containing 675 μM CaCl2 in FLIPR assay buffer. IC50 values for test compounds were calculated using the fluorescence value collected at the 10 min timepoint with % inhibition calculated using the DMSO control and cyclosporin A values at […].

[4] = PBS solubility; type: physicochemical; details: aqueous buffer, kinetic from dmso stock; PBS pH 7.4, 2 hr at 25° C.
Protocol: as §1

[5] = Hepatocyte clearance assay, human; type: in vitro ADME; details: cryopreserved primary human hepatocytes, average value from two experiments, read-out: Human heps intrinsic clearance (CLint)
Protocol: (§2) In vitro clearance studies were performed in primary rat and human hepatocytes (BioIVT). Vials of cryopreserved rat or human hepatocytes were thawed in a 37° C. water bath for 2 min. Cells were transferred into thawing medium (Williams' Medium E containing 30% Percoll, 1× GlutaMAX-1, 15 mM HEPES, 5% fetal bovine serum (FBS), 4 μg/ml insulin, 1 μM dexamethasone), centrifuged at 100 g for 10 min then resuspended in culture medium (Leibovitz's L-15 Medium) at a concentration of 0.5×10^6 viable cells/mL (number of viable cells assessed using AO/PI staining). Hepatocytes (198 μL) were transferred into wells of a 96-well non-coated plate and placed in a 37° C. incubator for 10 min. Test compound solutions were prepared from 10 mM stocks in DMSO, diluted to 100 μM in 50% (v/v in water) acetonitrile. Test compound samples (2 μl) were added to each well of hepatocytes and incubated at 37° C. Samples (25 μl) were collected at t=0, 15, 30, […] and 120 min, mixed with 6 volumes (150 μl) of acetonitrile containing internal standard (100 nM alprazolam, 200 nM caffeine and 100 nM tolbutamide), vortexed for 5 min and centrifuged for 45 min at 3220 g. An aliquot of supernatant (100 μL) was diluted with 100 μL ultra-pure water, and the mixture was used for LC/MS/MS analysis. All incubations were performed in duplicate. Peak areas were determined from extracted ion chromatograms. The slope value, k, was determined by linear regression of the natural logarithm of the remaining percentage of the parent drug vs. incubation time curve. The in vitro half-life (in vitro t1/2) was determined from the slope value: in vitro t1/2=0.693/k. Conversion of the in vitro t1/2 (in min) into the in vitro intrinsic clearance (in vitro CLint, in μL/min/1×10^6 cells) was done using the following equation (mean of duplicate determinations): • in vitro CLint=kV/N • V=incubation volume (0.2 mL) • N=number of hepatocytes per well (0.1×10^6 cells). Microsomal Clearance Assay

[6] = Hepatocyte clearance assay, rat; type: in vitro ADME; details: cryopreserved primary rat hepatocytes, average value from two experiments, read-out: Rat heps intrinsic clearance (CLint)
Protocol: as §2

| solubility at 2 h [1] [µM] | mPTP Rat liver pIC50* [2] | mPTP Rat brain pIC50 [3] | solubility at 2 h [4] [µM] | hepatocyte CLint at 1 µM [5] [µL/min/1e6 cells] | hepatocyte CLint at 1 µM [6] [µL/min/1e6 cells] | Structure (SMILES) |
| --- | --- | --- | --- | --- | --- | --- |
| 3 (≈ 0.874 µg/mL) | 7.6 | 7.6 | 1.2 (≈ 0.35 µg/mL) | – | – | Cc1cccc(C)c1NC(=O)/C=C/c1ccc2cn[nH]c2c1 [Example 24, (E)-N-(2,6-dimethylphenyl)-3-(1H-indazol-6-yl)acrylamide] |
| 296 (≈ 108 µg/mL) | 5.8 | – | – | 31 | 64 | O=C(/C=C/c1ccc2cn[nH]c2c1)Nc1ccccc1CCN1CC(F)C1 [Example 32, (E)-N-(2-(2-(3-fluoroazetidin-1-yl)ethyl)phenyl)-3-(1H-indazol-6-yl)acrylamide] |
| 80 (≈ 26.7 µg/mL) | 7.5 | – | – | 13 | 25 | CO[C@H]1Cc2ccccc2[C@@H]1NC(=O)/C=C/c1ccc2cn[nH]c2c1 [Example 37, (E)-3-(1H-indazol-6-yl)-N-((1S,2S)-2-methoxy-2,3-dihydro-1H-inden-1-yl)acrylamide] |
